Results published in patent US12565659B2, “Recombinant lac polynucleotides and uses thereof to increase production of C-lignin in plants” (UNIVERSITY OF NORTH TEXAS, priority 2020, dated 2026).
Marks after values point to notes of the source that are not given here.

System: Recombinant ChLAC8
Assay: Laccase activity assay and enzyme kinetics of recombinant ChLAC8 with monolignol substrates
Format: biochemical, Cleome hassleriana
Settings: for oxidation of monolignol by ChLAC8 (decrease in substrate by HPLC): 200 μM substrate, 30 min, 25° C.; for dimers in reaction products (LC-MS/MS) / trimers in reaction products (LC-MS/MS): reaction with ChLAC8; for Kcat / Km / Vmax: recombinant ChLAC8, substrate 25 to 800 μM, pH 6.8, 25° C.
Description: The open reading frame (ORF) of ChLAC8 (ChLAC8X1, XM_010555066.1) was amplified with the primers listed in Wang Supp. Table 4, ligated into the pENTR/D-TOPO vector (Invitrogen), and subcloned into pDEST17 fused with a 6× histidine tag at the N-terminus via Gateway LR recombination reaction (Invitrogen). The resulting vector (pDEST17-ChLAC8) was transformed into E. coli Rosetta (DE3) (Novagen) for protein expression. The transgenic E. coli strain was cultured in LB medium at 37° C. until OD600=0.4-0.6 and then supplemented with 0.5 mM isopropyl-β-D-thiogalactoside (IPTG) to induce the expression of ChLAC8 at 16° C. for 20 h. After induction, cell cultures were harvested by centrifugation at 10,000×g for 5 min at 4° C., and the resulting pellets were used for ChLAC8 protein purification via Ni-NTA resin (Thermo Scientific) according to the manufacturer's manual. The eluted protein was further desalted into 50 mM potassium phosphate buffer (pH 6.8) using a 30 kDa cut-off Amicon Ultra centrifugal filter (Millipore). The purity of recombinant ChLAC8 was examined by SDS-PAGE and the protein concentration was quantified by Bradford assays.
Laccase activity assays were performed in a 100 μL reaction mixture consisting of 50 mM potassium phosphate buffer (pH 6.8), 10-20 μg of recombinant ChLAC8, and 200 μM monolignol substrate (caffeyl alcohol, coniferyl alcohol or sinapyl alcohol). The reactions were incubated at 25° C. for 30 min and terminated by adding 100 μL of methanol. The reaction products were injected into an HPLC or LC-MS/MS system for analysis as described below. The decrease in the level of the substrate was measured to calculate the enzyme activity. To determine kinetic parameters, ChLAC8 was incubated with different concentrations of caffeyl alcohol or sinapyl alcohol in a range from 25 to 800 μM. The enzyme assays were performed in triplicate at each substrate concentration, and the Vmax and Km values were calculated by Graphpad Prism 8 software with nonlinear regression analysis.
The reaction products were analyzed on an Agilent 1260 HPLC system equipped with a Luna C18(2) reverse-phase column (5 μm particle, 250×4.6 mm, Phenomenex) and separated in a mobile phase consisting of solvent A (1% in phosphoric acid in water) and solvent B (acetonitrile) with the following gradient: 5% B for 5 min, to 33% B in 25 min, to 45% B in 5 min, to 95% B in 5 min, keep at 95% B for 5 min, back to 5% B in 5 min.
LC-MS/MS analysis was performed using an Agilent 1290 Infinity II liquid chromatography system coupled to an Agilent 6400 Series Triple Quadrupole System with electrospray ionization source in negative ionization mode. A reverse phase ZORBAX RR Eclipse Plus C18, 95 Å, 4.6×250 mm, 5 μm (Agilent) was used for separation. The gradient for HPLC separation was 0.1% (v/v) formic acid in water (A) and 0.1% (v/v) formic acid in acetonitrile (B) with the following solvent gradient: 5% B for 5 min, to 40% B in 30 min, to 95% B in 5 min, 95% B for 5 min, to 5% B in 1 min. The total LC-MS/MS run was 46 min with a flow rate of 1.0 mL/min. Injection volume was 10 μL. MS data were recorded in the range of m/z 100-700 (Perna et al., 2018).

oxidation of monolignol by ChLAC8 (decrease in substrate by HPLC) | dimers in reaction products (LC-MS/MS) | trimers in reaction products (LC-MS/MS) | Km value for caffeyl alcohol relative to that for sinapyl alcohol (recombinant ChLAC8) [fold] | Kcat | Km [µM] | Vmax [pKat mg^−1] | Structure (SMILES)
could oxidize | consistent with the masses of dimers | trimers were observed | ~3.5 | 0.019 ± 0.003* sec^−1 | 210 ± 90.6 | 284.4 ± 50.4 | OC/C=C/c1ccc(O)c(O)c1 [Caffeyl alcohol, caffeyl alcohol]
not | No dimers were detected | – | – | – | – | – | COc1cc(/C=C/CO)ccc1O [Coniferyl alcohol, coniferyl alcohol]
could oxidize | consistent with the masses of dimers | No trimers were detected | – | 0.013 ± 0.001 s⁻¹ | 60.2 ± 16.7 | 192.0 ± 12.8 | COc1cc(/C=C/CO)cc(OC)c1O [Sinapyl alcohol, sinapyl alcohol]
